From BindingDB's records for doi:10.1021/acs.biochem.5b00536 (University of Pennsylvania, 2015)

Columns and labels:
Histone deacetylase 8 = target: T1, Histone deacetylase 8 (Homo sapiens, UniProt Q9BY41); test: HDAC8 Fluorimetric Assay; settings: pH 8.2
T1 sequence (Q9BY41 whole entry): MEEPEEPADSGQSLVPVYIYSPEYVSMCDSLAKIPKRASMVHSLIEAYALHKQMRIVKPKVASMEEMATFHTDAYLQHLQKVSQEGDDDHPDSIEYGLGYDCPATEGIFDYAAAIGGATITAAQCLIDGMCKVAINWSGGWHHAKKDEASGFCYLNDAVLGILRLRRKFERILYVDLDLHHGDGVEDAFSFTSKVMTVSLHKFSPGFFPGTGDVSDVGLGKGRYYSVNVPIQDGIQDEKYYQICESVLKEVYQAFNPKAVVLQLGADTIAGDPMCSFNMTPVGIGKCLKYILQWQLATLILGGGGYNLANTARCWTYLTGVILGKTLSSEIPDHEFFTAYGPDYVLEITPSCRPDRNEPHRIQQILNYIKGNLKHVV
Protocol: Activity assays were conducted at 25 °C and contained 500 nM HDAC8 enzyme, 150 μM Ac-Arg-His-Lys(Ac)-Lys(Ac)-aminomethylcoumarin substrate (BML-KI178, Enzo Life Sciences), and 0−10 mM inhibitor in assay buffer [25 mM Tris (pH 8.2), 137 mM NaCl, 2.7 mM KCl, and 1 mM MgCl2; 250 μM tris(2-carboxyethyl)phosphine was added for the assay of thiol compound 2] in a final volume of 50 μL. […] After 30 min, reactions were quenched by adding 100 μM M344 (Sigma-Aldrich) and the appropriate Fluor-de-Lys developer (BMLKI176, Enzo Life Sciences, 50 μL). Fluorescence was measured after 45 min using a Fluoroskan II plate reader (excitation at 355 nm, emission at 460 nm).

[1] = target: T2, Acetylpolyamine amidohydrolase (Mycoplana ramosa, UniProt Q48935); test: APAH Fluorimetric Assay; settings: pH 8.2
T2 sequence (Q48935 whole entry): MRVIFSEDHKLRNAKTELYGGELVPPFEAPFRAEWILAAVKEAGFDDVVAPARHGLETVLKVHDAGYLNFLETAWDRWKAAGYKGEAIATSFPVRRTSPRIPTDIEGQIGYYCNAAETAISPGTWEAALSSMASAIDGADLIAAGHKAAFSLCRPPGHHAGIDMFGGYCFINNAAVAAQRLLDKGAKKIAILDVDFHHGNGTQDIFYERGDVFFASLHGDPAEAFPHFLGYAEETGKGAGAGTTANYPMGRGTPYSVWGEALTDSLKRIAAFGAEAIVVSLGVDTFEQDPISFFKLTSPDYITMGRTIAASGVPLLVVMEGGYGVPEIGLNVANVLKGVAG
Protocol: Activity assays were conducted at 25 °C and contained 250 nM APAH (∼50% Zn2+ occupancy), 150 μM substrate, and 0−250 μM inhibitor in assay buffer [25 mM Tris (pH 8.2), 137 mM NaCl, 2.7 mM KCl, and 1 mM MgCl2] in a final volume of 50 μL. […] After 30 min, reactions were quenched by adding 100 μM M344 (Sigma-Aldrich) and the appropriate Fluor-de-Lys developer (BML-KI105, Enzo Life Sciences, 50 μL). Fluorescence was measured after 45 min using a Fluoroskan II plate reader (excitation at 355 nm, emission at 460 nm).

Structure (SMILES) | IC50 (Histone deacetylase 8) | IC50 [1]
NCCCNCCCCCC(=O)NO [(3-azaniumylpropyl)[5-(hydroxycarbamoyl)pentyl]azanium (3)] | 14000 nM | 
NCCCCCCCC(=O)NO | 2200 nM | 150 nM
NCCCNCCCCCS [(3-azaniumylpropyl)(5-sulfanylpentyl)azanium (2)] | 12000 nM | 
NCCCCCCC(=O)NO | 5300 nM | 68 nM
NCCCNCCCCCC(=O)C(F)(F)F [(3-azaniumylpropyl)(7,7,7-trifluoro-6-oxoheptyl)azanium (1)] | 260 nM | 
NCCCCC(=O)NO [5-Amino-N-hydroxypentanamide (4)] | 120000 nM | 170 nM
NCCCCCC(=O)NO | 19000 nM | 130 nM
